Laboratory results published in PMC9586930, “Molecular insights into the distinct signaling duration for the peptide-induced PTH1R activation” (Nature Communications, 2022).
Numbering of substitutions follows the chain as printed.

Columns and labels:
Assay type in all cases: cell-based
Conditions in all cases: for ΔpEC50±SEM: relative to WT, n = 3 in triplicate; for ΔpEC50±SEM / Span±SEM: mean ± SEM; for Span±SEM: window between maximal response (Emax) and vehicle, n = 3
PTH1R Q440A mutant = biological target: T1, PTH1R Q440A mutant (Homo sapiens, UniProt Q03431, Q440A); assay: cAMP accumulation assay (GloSensor), PTH1R Q440A
T1 construct: a flag-tag was fused to the N terminal of full-length PTH1R (WT or mutant); expressed in transfected cells; host or cells: HEK293T
T1 sequence (Q03431 27-593 Q440A): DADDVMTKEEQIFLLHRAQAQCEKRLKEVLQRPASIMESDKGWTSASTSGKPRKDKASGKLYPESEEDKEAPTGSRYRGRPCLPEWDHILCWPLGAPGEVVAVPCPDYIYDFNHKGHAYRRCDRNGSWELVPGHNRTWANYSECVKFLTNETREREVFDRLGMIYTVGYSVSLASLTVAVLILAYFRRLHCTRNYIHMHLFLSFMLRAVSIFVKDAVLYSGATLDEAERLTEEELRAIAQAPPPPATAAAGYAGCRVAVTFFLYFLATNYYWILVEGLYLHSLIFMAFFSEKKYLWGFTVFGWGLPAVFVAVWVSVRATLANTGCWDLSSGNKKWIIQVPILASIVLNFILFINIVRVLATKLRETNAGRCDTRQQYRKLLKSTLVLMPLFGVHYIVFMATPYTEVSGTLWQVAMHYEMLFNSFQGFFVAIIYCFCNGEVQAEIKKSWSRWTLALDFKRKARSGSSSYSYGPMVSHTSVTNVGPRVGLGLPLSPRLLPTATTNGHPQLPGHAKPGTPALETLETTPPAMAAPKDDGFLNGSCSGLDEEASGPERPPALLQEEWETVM
Procedure: (§1) Human embryonic kidney 293 T (HEK293T, ATCC: CRL-1573) cells were transfected with a plasmid mixture consisting of pcDNA3.1-flag-PTH1R (WT or mutants) and the cAMP biosensor GloSensor-22F (Promega) at a ratio of 2:1 (see Supplementary Table 7 for a list of primers used in this study). After 24 h, transfected cells were plated onto a 384-well plate, which was treated with cell adherent reagent (Applygen) in advance. After another 12 h, cells were treated with Hank’s balanced salt solution for starvation and then incubated in CO2-independent media containing 4% GloSensor cAMP Reagent (Promega) at a volume of 5 μl per well and incubated for 20 min at RT before measurements for baseline luminescence (Spark Multimode microplate reader, TECAN). Next, test ligands were added at different concentrations from 10^−6 to 10^−13 M before second measurement. Finally, data were normalized to 100% of the maximal PTH (1-34) response for WT PTH1R using a sigmoidal dose-response in GraphPad Prism.
(§2) Statistical analyses were performed on at least three individual datasets and analysed using GraphPad Prism software. Bars represent differences in the calculated agonist potency (pEC50) and maximum agonist response (Emax) for each mutant relative to the WT receptor. Data are mean± s.e.m. from at least three independent experiments, performed in triplicates. ns, not significant, ^nsP > 0.01; ^*P < 0.01; ^**P < 0.001; ^***P < 0.0001 (one-way analysis of variance (ANOVA) followed by Dunnett’s test, compared with the response of the WT). For dose-response experiments, data were normalized and analyzed using nonlinear curve fitting for the log (agonist) versus response (three parameters) curves.

PTH1R Y191A mutant = biological target: T2, PTH1R Y191A mutant (Homo sapiens, UniProt Q03431, Y191A); assay: cAMP accumulation assay (GloSensor), PTH1R Y191A
T2 construct: a flag-tag was fused to the N terminal of full-length PTH1R (WT or mutant); expressed in transfected cells; host or cells: HEK293T
T2 sequence (Q03431 27-593 Y191A): T1 sequence (Q03431 27-593 Q440A) with Y165A, A414Q
Procedure: as §1, §2

PTH1R V285A mutant = biological target: T3, PTH1R V285A mutant (Homo sapiens, UniProt Q03431, V285A); assay: cAMP accumulation assay (GloSensor), PTH1R V285A
T3 construct: a flag-tag was fused to the N terminal of full-length PTH1R (WT or mutant); expressed in transfected cells; host or cells: HEK293T
T3 sequence (Q03431 27-593 V285A): T1 sequence (Q03431 27-593 Q440A) with V259A, A414Q
Procedure: as §1, §2

Substance | span (from the WT) (PTH1R Q440A mutant; PTH1R Q4407.38A, replicate 1) | ΔpEC50 (from the WT) (PTH1R Q440A mutant; PTH1R Q4407.38A, replicate 1) | span (from the WT) (PTH1R Q440A mutant; PTH1R Q4407.38A, replicate 2) | ΔpEC50 (from the WT) (PTH1R Q440A mutant; PTH1R Q4407.38A, replicate 2) | span (from the WT) (PTH1R Q440A mutant; PTH1R Q4407.38A, replicate 3) | ΔpEC50 (from the WT) (PTH1R Q440A mutant; PTH1R Q4407.38A, replicate 3) | ΔpEC50±SEM (PTH1R Q440A mutant) | ΔpEC50 (from the WT) (PTH1R Q440A mutant; replicate 1) | ΔpEC50 (from the WT) (PTH1R Q440A mutant; replicate 2) | ΔpEC50 (from the WT) (PTH1R Q440A mutant; replicate 3) | Span±SEM (PTH1R Q440A mutant) | span (from the WT) (PTH1R Y191A mutant; PTH1R Y1911.43A, replicate 1) | ΔpEC50 (from the WT) (PTH1R Y191A mutant; PTH1R Y1911.43A, replicate 1) | span (from the WT) (PTH1R Y191A mutant; PTH1R Y1911.43A, replicate 2) | ΔpEC50 (from the WT) (PTH1R Y191A mutant; PTH1R Y1911.43A, replicate 2) | span (from the WT) (PTH1R Y191A mutant; PTH1R Y1911.43A, replicate 3) | ΔpEC50 (from the WT) (PTH1R Y191A mutant; PTH1R Y1911.43A, replicate 3) | ΔpEC50±SEM (PTH1R Y191A mutant) | ΔpEC50 (from the WT) (PTH1R Y191A mutant; replicate 1) | ΔpEC50 (from the WT) (PTH1R Y191A mutant; replicate 2) | also measured
H-AVAEIQLMHQRAKWIQDARRRAFLHKLIAEIHTAEI-OH [LA-PTH, long-acting PTH analog, modified PTH/PTHrP hybrid] | 337.5 | -0.045 | 279.8 | -0.009 | 250.7 | 0.015 | -0.01±0.02 | -0.045 | -0.009 | 0.015 | 289.33±25.51 | 133.3 | -0.163 | 153.3 | -0.013 | 159.2 | -0.095 | -0.09±0.04 | -0.163 | -0.013 | ΔpEC50 (from the WT) (PTH1R Y191A mutant; replicate 3): -0.095; Span±SEM (PTH1R Y191A mutant): 148.60±7.84; span (from the WT) (PTH1R V285A mutant; PTH1R V2853.33A, replicate 1): 160.1; ΔpEC50 (from the WT) (PTH1R V285A mutant; PTH1R V2853.33A, replicate 1): -0.326; span (from the WT) (PTH1R V285A mutant; PTH1R V2853.33A, replicate 2): 211.8; ΔpEC50 (from the WT) (PTH1R V285A mutant; PTH1R V2853.33A, replicate 2): -0.5; span (from the WT) (PTH1R V285A mutant; PTH1R V2853.33A, replicate 3): 140.2; ΔpEC50 (from the WT) (PTH1R V285A mutant; PTH1R V2853.33A, replicate 3): -0.433; ΔpEC50±SEM (PTH1R V285A mutant): -0.42±0.05; ΔpEC50 (from the WT) (PTH1R V285A mutant; replicate 1): -0.326; ΔpEC50 (from the WT) (PTH1R V285A mutant; replicate 2): -0.5; ΔpEC50 (from the WT) (PTH1R V285A mutant; replicate 3): -0.433; Span±SEM (PTH1R V285A mutant): 170.70±21.34
H-AVSEHQLLHDKGKSIQDLRRRELLEKLL-{Aib}-KLHTA-NH2 [ABL, Abaloparatide, an analog of PTHrP, short-acting PTH1R agonist] | 252.6 | -1.026 | 278.7 | -0.991 | 338 | -1.125 | -1.05±0.04 | -1.026 | -0.991 | -1.125 | 289.77±25.27 | 197.4 | -2.59 | 251.3 | -2.509 | 242 | -2.365 | -2.49±0.07 | -2.59 | -2.509 | ΔpEC50 (from the WT) (PTH1R Y191A mutant; replicate 3): -2.365; Span±SEM (PTH1R Y191A mutant): 230.23±16.63; span (from the WT) (PTH1R V285A mutant; PTH1R V2853.33A, replicate 1): 158.8; ΔpEC50 (from the WT) (PTH1R V285A mutant; PTH1R V2853.33A, replicate 1): -1.921; span (from the WT) (PTH1R V285A mutant; PTH1R V2853.33A, replicate 2): 185.5; ΔpEC50 (from the WT) (PTH1R V285A mutant; PTH1R V2853.33A, replicate 2): -2.009; span (from the WT) (PTH1R V285A mutant; PTH1R V2853.33A, replicate 3): 175.8; ΔpEC50 (from the WT) (PTH1R V285A mutant; PTH1R V2853.33A, replicate 3): -2.246; ΔpEC50±SEM (PTH1R V285A mutant): -2.06±0.1; ΔpEC50 (from the WT) (PTH1R V285A mutant; replicate 1): -1.921; ΔpEC50 (from the WT) (PTH1R V285A mutant; replicate 2): -2.009; ΔpEC50 (from the WT) (PTH1R V285A mutant; replicate 3): -2.246; Span±SEM (PTH1R V285A mutant): 173.37±7.80
H-SVSEIQLMHNLGKHLNSMERVEWLRKKLQDVHNF-OH [PTH, Teriparatide, human PTH 1-34, long-acting peptide agonist of PTH1R] | 372.2 | -0.177 | 273.2 | -0.116 | 248 | -0.201 | -0.16±0.03 | -0.177 | -0.116 | -0.201 | 297.80±37.90 | 132.4 | -0.995 | 179.6 | -0.805 | 268.7 | -0.706 | -0.84±0.08 | -0.995 | -0.805 | ΔpEC50 (from the WT) (PTH1R Y191A mutant; replicate 3): -0.706; Span±SEM (PTH1R Y191A mutant): 164.77±14.05; span (from the WT) (PTH1R V285A mutant; PTH1R V2853.33A, replicate 1): 118.6; ΔpEC50 (from the WT) (PTH1R V285A mutant; PTH1R V2853.33A, replicate 1): -0.181; span (from the WT) (PTH1R V285A mutant; PTH1R V2853.33A, replicate 2): 150.8; ΔpEC50 (from the WT) (PTH1R V285A mutant; PTH1R V2853.33A, replicate 2): -0.072; span (from the WT) (PTH1R V285A mutant; PTH1R V2853.33A, replicate 3): 181.1; ΔpEC50 (from the WT) (PTH1R V285A mutant; PTH1R V2853.33A, replicate 3): -0.211; ΔpEC50±SEM (PTH1R V285A mutant): -0.15±0.04; ΔpEC50 (from the WT) (PTH1R V285A mutant; replicate 1): -0.181; ΔpEC50 (from the WT) (PTH1R V285A mutant; replicate 2): -0.072; ΔpEC50 (from the WT) (PTH1R V285A mutant; replicate 3): -0.211; Span±SEM (PTH1R V285A mutant): 152.43±15.43
